Test results: patent US20190290623A1, “USE OF TIOTROPIUM BROMIDE TO PREVENT PULMONARY OXYGEN TOXICITY” (priority 2018, published 2019)
Entries after “also recorded” stand apart in the source; their conditions may differ.

System: swine exposed to 2.5 ATA hyperbaric oxygen for 5.5 hr
Experiment: Experiment 2 deep exposure simulation: pulmonary compliance
Assay type: in vivo
Protocol: Experiment 2 is designed to evaluate the efficacy of tiotropium bromide pre-dive with respect to reducing decrements in pulmonary function due to PO2T following a 5.5 hour, 2.5 ATA hyperbaric oxygen exposure. This dive profile was selected because it caused the most significant pulmonary function deficits in humans with minimal risk of seizure due to CNS oxygen toxicity.
Pulmonary function testing: The swine had disposable prewired electrodes adhered to the dermis over the gluteal muscle and a train of four (TOF) stimulation was initiated to confirm proper placement and twitch using a DigiStim III Peripheral Nerve Stimulator (Neuro Technology Inc., Kerrville, Tex.). Atracurium besylate (50 mg, IV) (hospira, Lake Forest, Ill.) was injected into the ear vein catheter, and the swine was observed until cessation of muscle twitch with TOFs. The swine was then disconnected from the ventilator circuit, allowed to passively exhale, and connected to an O2 filled 3 L super syringe (Hamilton Company, Reno, Nev.) attached to a pressure gauge (OMEGA®, Norwalk, Conn.), and pneumotachometer (Harvard Apparatus, Holliston, Mass.). Oxygen was introduced in 100 ml increments every 3 seconds until a static pressure of 40 cm H2O was reached. The lungs were then deflated in 100 ml increments until a static pressure of −40 cm H2O. The swine was then reconnected to the ventilator and ventilated for 2 minutes before repeating the insufflation and exhalation maneuvers and measurements one more time. […] After the above measurements, swine received either nebulized Tiotropium (18 μg dissolved in saline) or an equal volume of 0.9% saline through the breathing circuit over the course of 15 minutes. The propofol infusion was then stopped, the animals were then monitored until a swallow reflex was observed then extubated. The swine were then transported to the hyperbaric chamber suite and allowed to recover until capable of standing.
Hyperbaric Exposures: Individual animals were then placed into a Plexiglas box (30 in.×42 in.×38 in., manufactured in-house) within a Multiple Large Animal Chamber (MLAC), which is a steel-hulled hyperbaric chamber (450-cubic ft. floodable volume and pressure tested to 1,230 feet of seawater [fsw] equivalent) (Bethlehem Steel Corp, Bethlehem Pa.). Pressure/depth was monitored by a CPG 2500 Digital Pressure Gauge (Mensor Corp., San Marcos, Tex.). Swine were dove in pairs with each treatment group represented. Swine box assignment was alternated with respect to treatment to avoid any effects associated with individual box environmental features. Animals were monitored via closed-circuit television to observe signs of distress related to middle ear barotrauma (e.g. head shaking, nystagmus) and seizure activity. Oxygen concentration was measured and recorded using a portable O2 analyzer (Teledyne Analytical Inst, City of Industry, Calif.). After positioning the animal inside the Plexiglas box, the MLAC was sealed and pressurized using air at the rate of I ATA/minute to a depth of 2.5 ATA. After 2.5 min at a bottom depth equivalent to 2.5 ATA, the breathing gas was switched to 100% O2 and maintained for 5.5 Hrs. After completing 5.5 Hrs on 100% O2, the inspired gas was switched back to air for 3 min. Then, the chamber was decompressed at 1 ATA/minute. Upon reaching surface the animal was transported to the surgical suite for post-dive ECG and pulmonary function measurements (identical to the pre-dive procedures). […]

C[N+]1(C)[C@@H]2C[C@@H](OC(=O)C(O)(c3cccs3)c3cccs3)C[C@H]1[C@@H]1O[C@@H]12 [Tiotropium, tiotropium bromide]
pulmonary compliance, inspiratory arm, post-exposure vs baseline (2.5 ATA O2 5.5 hr, 1st set of measurements, n=7, p=0.1999): no significant difference | expiratory compliance, post-exposure vs baseline (2.5 ATA O2 5.5 hr, 1st set of measurements, n=7, p=0.5711): did not exhibit any decrement | pulmonary compliance, expiratory arm, post-exposure vs baseline (2.5 ATA O2 5.5 hr, 2nd set of measurements, n=9, p=0.0438): significant decrement | pulmonary compliance, inspiratory arm, post-exposure vs baseline (2.5 ATA O2 5.5 hr, 2nd set of measurements, n=9, p=0.7388): no significant change | pulmonary compliance after hyperbaric oxygen exposure (2.5 ATA for 5.5 hrs, 18 μg inhaled, nebulized, prophylactic, p=0.9094): no decrement in pulmonary compliance; also recorded: no change
